Several values for one entry are separate records, joined by “and”; a condition that tells them apart may be missing. Identical values can stand only once.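 Test compounds were applied to cells in 96-well plates for 48 hours at 5 doses. GI50 = concentration required for 50% inhibition of growth. TGI: concentration producing complete growth inhibition.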
Tests used:
Experiment in all cases: NCI-60 cell line screen, 48 h
[1] = system: OVCAR-4 ovarian
[2] = system: KM12 colon
[3] = system: ACHN renal
[4] = system: HOP-62 NSCLC
[5] = system: CCRF-CEM leukemia
[6] = system: CAKI-1 renal
[7] = system: SN12C renal
[8] = system: MDA-MB-231 breast
[9] = system: A549 NSCLC
[10] = system: NCI-H522 lung
[11] = system: MALME-3M melanoma
[12] = system: LOX IMVI melanoma
[13] = system: NCI-H226 lung
[14] = system: K-562 leukemia

Compound	TGI [1]	TGI [2]	TGI [3]	TGI [4]	TGI [5]	TGI [6]	TGI [7]	TGI [8]	TGI [9]	TGI [10]	TGI [11]	TGI [12]	TGI [13]	TGI [14]	GI50 [14]	GI50 [11]
CCOC(=O)C1C(c2ccc(OC)cc2)c2c([nH][nH]c2=O)CC1(O)OCC (stereo unspecified)	> 100 µM	> 100 µM	> 100 µM	> 100 µM	> 100 µM	> 100 µM	> 100 µM	> 100 µM	> 100 µM	> 100 µM	> 100 µM	> 100 µM				
O=C(c1cccs1)N(C(=S)N1CCN(c2ccccn2)CC1)C1CCCCC1	> 100 µM	> 100 µM	> 100 µM	> 100 µM	> 100 µM	> 100 µM	> 100 µM		> 100 µM	> 100 µM	> 100 µM	> 100 µM	73.8 µM	> 100 µM		
C#C[C@]1(O)CCC2C3CCc4cc(Oc5nc(F)nc(-c6c7cc8ccccc8cc7c7n6CCS7)n5)ccc4C3CCC21C (stereo partly specified)		> 100 µM	> 100 µM	> 100 µM	> 100 µM		> 100 µM		> 100 µM	62.7 µM	> 100 µM	> 100 µM	> 100 µM	> 100 µM		
Cn1c(Nc2ccccc2)c(C=Nc2ccccc2)c(=O)n(C)c1=O	> 100 µM	> 100 µM		79.7 µM	> 100 µM		> 100 µM	> 100 µM	> 100 µM			> 100 µM		> 100 µM		
O=c1c2cccnc2cc(-c2ccccc2)n1CCO	> 100 µM	> 100 µM	> 100 µM	> 100 µM	> 100 µM		> 100 µM	> 100 µM	> 100 µM	> 100 µM	> 100 µM	> 100 µM	> 100 µM	> 100 µM		
COC1=C(N2CC2)C(=O)c2nc3n(c2C1=O)CCC3	0.526 µM	3.11 µM	0.851 µM	2.34 µM	1.33 µM		2.95 µM	6.28 µM	6.47 µM	0.385 µM	0.827 µM	2.15 µM	4.76 µM			
COC(=O)C1[C@@H](C(=O)OC)C12C=Cc1ccccc1C=C2 (stereo partly specified)		> 100 µM	> 100 µM	> 100 µM	> 100 µM		> 100 µM		> 100 µM	> 100 µM	> 100 µM	> 100 µM		> 100 µM		
COC(=O)c1ccccc1/C=C1\Cc2cc(C)cc(C)c2C1=O		> 100 µM	> 100 µM	> 100 µM	> 100 µM		> 100 µM	> 100 µM	> 100 µM	> 100 µM	> 100 µM	> 100 µM	> 100 µM	> 100 µM		
Cc1ccc(S(=O)(=O)NC2C(=O)c3ccccc3C(=O)C2n2cnc3ccccc32)cc1 (stereo unspecified)	26.1 µM	> 100 µM	> 100 µM	> 100 µM	> 100 µM	> 100 µM	> 100 µM	> 100 µM	> 100 µM		1.81 µM	> 100 µM	> 100 µM	> 100 µM		
COc1cc(C2C3=C(COC3=O)Oc3cc4c(cc32)OCO4)ccc1OC(C)=O (stereo unspecified)	> 29.8 µM	23.8 µM	> 100 µM	> 100 µM	> 49.6 µM	0.904 µM	> 100 µM	27.1 µM	> 100 µM		0.565 µM	> 100 µM	> 100 µM	> 38.7 µM		
COc1cc(Nc2cnc3cc(F)c(F)cc3n2)cc(OC)c1	> 100 µM	> 100 µM	> 100 µM	> 100 µM	> 100 µM	> 100 µM	> 100 µM		> 100 µM	42.4 µM	> 100 µM	> 100 µM	> 100 µM			
Cc1ccc(SCC(CF)OCn2cc(F)c(=O)[nH]c2=O)cc1 (stereo unspecified)	> 100 µM		> 100 µM	> 100 µM	> 100 µM	> 100 µM		> 100 µM	> 100 µM	> 100 µM	> 100 µM	> 100 µM		> 100 µM		
CCSC1=N/C(=C\c2ccco2)C(Cl)=N1		> 100 µM	> 100 µM	> 100 µM	> 100 µM	> 100 µM	> 100 µM	> 100 µM	> 100 µM			> 100 µM	> 100 µM	> 100 µM		
O=C1CCC2CCC1C2 (stereo unspecified)	> 100 µM	> 100 µM	> 100 µM	> 100 µM	> 100 µM	> 100 µM	> 100 µM	> 100 µM	> 100 µM		> 100 µM	> 100 µM	> 100 µM	> 100 µM		
CCOP(=O)(OCC)c1ccc(=O)[nH]c1-c1cccs1	> 100 µM	> 100 µM	> 100 µM	> 100 µM		> 100 µM	> 100 µM		> 100 µM	> 100 µM	> 100 µM		> 100 µM	> 100 µM		
N#Cc1c(Cl)c2ccccc2n2c1nc1ccccc12	84 µM	> 100 µM	32.6 µM	> 100 µM	47.2 µM	51.4 µM	67 µM	74 µM	> 100 µM			34.6 µM	59 µM	> 100 µM		
COc1ccc(C2=C(N)c3c(OC)cccc3C2=O)cc1	> 100 µM	> 100 µM		> 100 µM	> 100 µM	> 100 µM	> 100 µM	> 100 µM			> 100 µM	> 100 µM	> 100 µM	> 100 µM		
CSC1=N/C(=C\c2ccco2)C(=O)N1CN1CCCCC1		> 100 µM	> 100 µM	> 100 µM			> 100 µM	> 100 µM	> 100 µM	> 100 µM	> 100 µM	> 100 µM	> 100 µM	> 100 µM		
O=C(O)c1ccccc1C(=O)Nn1cnnc1	> 100 µM	> 100 µM	> 100 µM	> 100 µM	> 100 µM		> 100 µM	> 100 µM	> 100 µM	> 100 µM		> 100 µM		> 100 µM		
O=C(O)c1ccc2c(c1)CC1(C2)Cc2ccccc2C1=O (stereo unspecified)	> 100 µM	> 100 µM	> 100 µM	> 100 µM	> 100 µM		> 100 µM	> 100 µM	> 100 µM	> 100 µM	> 100 µM	> 100 µM	> 100 µM	> 100 µM		
COC(=O)C1=Cc2cc(OC)c(O)cc2[C@@H](c2ccc(O)c(OC)c2)[C@@H]1C(=O)OC		> 100 µM	> 100 µM	> 100 µM	> 100 µM		> 100 µM	> 100 µM	> 100 µM	> 100 µM	> 100 µM	> 100 µM	> 100 µM	> 100 µM		
CCOC(=O)c1c(-c2ccc(O)c(OC)c2)c(C#N)c(=S)n(C2OC(COC(C)=O)C(OC(C)=O)C(OC(C)=O)C2OC(C)=O)c1-c1ccccc1 (stereo unspecified)	> 100 µM	> 100 µM	> 100 µM	> 100 µM	> 100 µM	> 100 µM	> 100 µM		> 100 µM	51.3 µM and 54.4 µM	50.3 µM and > 100 µM	> 100 µM		> 100 µM	49.1 µM and > 100 µM	20.9 µM and 62.3 µM
CC(=O)N(CCc1ccccc1)C(C#N)c1ccc(OCCCCCCCCCCOc2ccc(C(C#N)N(CCc3ccccc3)C(C)=O)cc2)cc1 (stereo unspecified)	44.2 µM	> 100 µM	> 100 µM		> 100 µM	> 100 µM	> 100 µM	48.5 µM	> 100 µM		> 100 µM	> 100 µM	66.9 µM	> 100 µM		
CC/C=C/C(=O)CC(O)(C(F)(F)F)C(F)(F)F	> 100 µM	> 100 µM	> 100 µM	> 100 µM	> 100 µM		> 100 µM	> 100 µM	> 100 µM		> 100 µM	> 100 µM	> 100 µM			
C[C@H]1C[C@H](C)c2ccccc2N(C)C1=Nc1ccccc1	> 100 µM	> 100 µM	> 100 µM	> 100 µM		> 100 µM	> 100 µM	41.4 µM	> 100 µM		71.4 µM	31.7 µM	83.6 µM	> 100 µM		
O=C(c1ccco1)N(C(=S)N1CCN(c2ccccn2)CC1)C1CCCCC1	> 100 µM	> 100 µM	> 100 µM	> 100 µM	> 100 µM	> 100 µM	> 100 µM		> 100 µM	> 100 µM	> 100 µM	> 100 µM	> 100 µM	> 100 µM		
Cc1nn(-c2ccccc2)c2[nH]c(=S)cnc12	> 100 µM			> 100 µM	> 100 µM	> 100 µM	> 100 µM		> 100 µM	> 100 µM	> 100 µM	> 100 µM	> 100 µM	> 100 µM		
CCOC(=O)[C@@H]1ON2O[C@H](OC3CCCC3(c3ccccc3)c3ccccc3)C[C@H]3OC(=O)[C@@H]1C32 (stereo partly specified)		85.4 µM	> 100 µM	> 100 µM	78.3 µM	46 µM	> 100 µM	> 100 µM	76.6 µM	> 100 µM		86.7 µM	> 100 µM	> 100 µM		
